Values joined by “and” are separate entries in the source; they are usually repeats but may differ in a detail not shown here. Identical values can stand only once.
Assays:
[1] = Rat study: serum quercetin concentration after oral gavage; type: in vivo, Sprague-Dawley rats; conditions: for concentration of quercetin in the serum from individual rats: one column per rat
Protocol: Rats were administered: • (a) Quercetin • (b) American Ruby Red grapefruit extract • (c) Quercetin and American Ruby Red grapefruit extract • (d) grapefruit extract • (e) grapefruit extract and quercetin
5 groups of 8 male Sprague-Dawley rats, aged approximately 14 weeks, weighing 350-400 gm were used in the study. The rats were bred at Hercus-Taeri Resource Unity. All of the rats were healthy and had no medication history.
1. The quercetin was dissolved in distilled water at 12.0 mg/ml immediately prior to administration.
2. American Ruby Red grapefruit was cut in half and juice obtained by manual squeezing.
The grapefruit extract used was a commercially obtained grapefruit juice.
3. A known volume of each of the grapefruit juices was lyophilized. Once dry, the residue was resuspended in distilled water to 25% of its original volume. This reduced the volume to be gavaged to each rat in the relevant groups to make the quantities of active agents administered as high as practical.
4. The quercetin/grapefruit juice formulations were prepared by dissolving the quercetin in the concentrated juices at 12.0 mg/ml.
GROUP 1. Each animal in this group received quercetin at 15 mg per kg body weight administered by oral gavage.
GROUP 2. Each animal in this group received the concentrated New Zealand grapefruit juice (American Ruby Red) at 2.5 ml per kg body weight administered by oral gavage.
GROUP 3. Each animal in this group received quercetin dissolved in the concentrated New
Zealand grapefruit juice (American Ruby Red) administered by oral gavage. The juice was administered so as to provide 15 mg quercetin per kg body weight.
GROUP 4. Each animal in this group received the concentrated grapefruit juice (prepared by Cedenco Ltd) at 2.5 ml per kg body weight administered by oral gavage.
GROUP 5. Each animal in this group received quercetin dissolved in the concentrated grapefruit juice (prepared by Cedenco Ltd) at 2.5 ml per kg body weight administered by oral gavage. The quercetin was dissolved so that it was administered at 15 mg per kg body weight.
1. A 0.5 ml time zero blood sample was taken from each animal from the lateral saphenous vein. The animals were anaesthetized using Halothane in oxygen (3.5% for knockdown, 2.5 to 3.0% for maintenance). The vein was cannulated. The zero-time blood sample was taken from each group of rats the day before the animals were gavaged. Following the collection of the blood sample, a 0.5 ml aliquot of sterile normal saline was given by intraperitoneal (IP) injection.
2. The test sample was prepared freshly immediately prior to the gavaging of each group of rats. Each animal was weighed and the volume of the test sample to be administered calculated.
3. Each rat was gavaged using proprietary gavaging needles (Popper). Once gavaging was complete the animals were left for 10 minutes before being anaesthetized using Halothane in oxygen (3.5% for knockdown, 2.5 to 3.0% for maintenance).
4. […] After each collection an equal volume of sterile saline was administered to each animal via an IP injection. The blood samples were immediately transferred to serum separating microtainer tubes (Becton Dickinson Cat. No 365956) and left to clot for 30 minutes at room temperature. The tubes were centrifuged at 3000 rpm for 10 minutes in a Beckman J6 centrifuge with a swing-out rotor. The sera were pipetted off and transferred into Eppendorf tubes/cryovials which were stored at −80° C.
The sera samples were sent to the Institute of Environmental Science and Research (ESR) (Kenepuru, Wellington, New Zealand) for quantitation of the concentration of quercetin in each. The detection limit for quercetin in serum was 5 ng/ml.

[2] = Human trial: blood serum levels of quercetin after ingestion, HPLC-UV; type: in vivo; conditions: human subject, 80 mg quercetin oral
Protocol: The concentration of quercetin in the blood of a human subject was measured over four hours following ingestion of: • (a) 80 mg quercetin and 200 ml filtered water, • (b) 80 mg quercetin and 200 ml grapefruit extract.
The grapefruit extract consisted of grapefruit juice that was squeezed from the grapefruit with a juicer. The collected juice was freeze-dried and redissolved as a concentrate (4 times) using water for solubilising.
The total amount of 6,7-DHB administered in the grapefruit extract in (b) above was estimated to be about 5.9 mg.
In both experiments, the quercetin was administered as a powder washed down with filtered water.
For the quercetin and grapefruit extract test, the grapefruit extract was taken two hours before the quercetin.
Serum samples were taken from the subject at 15 minute intervals. The samples were extracted into ethyl acetate and the concentration of quercetin determined using HPLC with UV detection at 315 nm. Carbamazepine was used as an internal standard.
A linear relationship for the standard curve was achieved over the range of quercetin standards of 2-150 ng/mL (using weighted linear retgression 1/x^2).
The lower limit of quantification (LLOQ) for the method was determined to be 2 ng/mL (using FDA guidelines for bio-analytical procedures) and the limit of detection was estimated to be 1 ng/mL.

[3] = cited from earlier work
[4] = cited from earlier work; remark: listed apart in the source

concentration of quercetin in the serum from individual rats ([1]; 0 min (sample taken the day before gavage)): 0
concentration of quercetin in the serum from individual rats ([1]; 30 min after oral gavage, quercetin 15 mg/kg and/or concentrated juice 2.5 ml/kg): 0
rats (of eight) showing quercetin in the serum ([1]; 30 minutes after administration): none was detected in any of the animals
concentration of quercetin in the serum from individual rats ([1]; 60 min after oral gavage, quercetin 15 mg/kg and/or concentrated juice 2.5 ml/kg, listed as Quercetin alone): 0 (7×) and 2
concentration of quercetin in the serum from individual rats ([1]; 90 min after oral gavage, quercetin 15 mg/kg and/or concentrated juice 2.5 ml/kg, listed as Quercetin alone): 0 (7×) and 2
concentration of quercetin in the serum from individual rats ([1]; 120 min after oral gavage, quercetin 15 mg/kg and/or concentrated juice 2.5 ml/kg, listed as Quercetin alone): 0 (7×) and 2
concentration at 0 min ([2]; time 0 min): 0 ng/mL
concentration at 15 min ([2]; time 15 min): 1 ng/mL
concentration at 30 min ([2]; time 30 min): 2.3 ng/mL
concentration at 45 min ([2]; time 45 min): 3.8 ng/mL
concentration at 60 min ([2]; time 60 min): 3.1 ng/mL
concentration at 75 min ([2]; time 75 min): 1 ng/mL
concentration at 90 min ([2]; time 90 min): 0 ng/mL
concentration at 105 min ([2]; time 105 min): 0 ng/mL
concentration at 120 min ([2]; time 120 min): 0 ng/mL
concentration at 135 min ([2]; time 135 min): 0 ng/mL
concentration at 150 min ([2]; time 150 min): 0 ng/mL
concentration at 165 min ([2]; time 165 min): 0 ng/mL
concentration at 180 min ([2]; time 180 min): 0 ng/mL
concentration at 195 min ([2]; time 195 min): 0 ng/mL
concentration at 210 min ([2]; time 210 min): 0 ng/mL
concentration at 225 min ([2]; time 225 min): 0 ng/mL
concentration at 240 min ([2]; time 240 min): 0 ng/mL
Structure (SMILES): O=c1c(O)c(-c2ccc(O)c(O)c2)oc2cc(O)cc(O)c12 [Quercetin, 2-(3,4-dihydroxyphenyl)-3,5,7-trihydroxy-4H-chromen-4-one]
bioavailability of active quercetin (duration) ([3]; human studies (Graefe 1999)): no more than 10 minutes
elimination half-life ([3]; humans, after ingesting quercetin foods or supplements): 1 to 2 h
bioavailability of quercetin in humans ([3]; humans): 0-50%
water solubility [4]: low
